pIC50: −log10 of the molar value. Where two headings read alike, the source gives them in different places.
Target: T1, human full-length HSP90 (Homo sapiens, UniProt P08238)
T1 construct: E. coli expressed human full-length HSP90 protein, purified >95%; made in house; host or cells: E. coli
Assay: Fluorescence polarization assay (competitive displacement of probe RBT0045864-FAM from HSP90)
Format: binding
From the text: Fluorescence polarization {also known as fluorescence anisotropy} measures the rotation of a fluorescing species in solution, where the larger molecule the more polarized the fluorescence emission. When the fluorophore is excited with polarized light, the emitted light is also polarized. The molecular size is proportional to the polarization of the fluorescence emission.
The fluoroscein-labelled probe—RBT0045864-FAM—
binds to HSP90 {full-length human, full-length yeast or N-terminal domain HSP90} and the anisotropy {rotation of the probe:protein complex} is measured.
Test compound is added to the assay plate, left to equilibrate and the anisotropy measured again. Any change in anisotropy is due to competitive binding of compound to HSP90, thereby releasing probe.
Stored at room temperature. • 3) BSA (bovine serum albumen) 10 mg/ml (New England Biolabs # B9001S) • 4) 20 mM probe in 100% DMSO stock concentration. Stored in the dark at RT. Working concentration is 200 nM diluted in AR water and stored at 4° C.
• 1) Add 100 μl 1× buffer to wells 11A and 12A (=FP BLNK) • 2) Prepare assay mix—all reagents are kept on ice with a lid on the bucket as the probe is light-sensitive.
• 3) Aliquot 100 μl assay mix to all other wells • 4) Seal plate and leave in dark at room temp for 20 minutes to equilibrate
This gives 2.5 mM {50×} stock cpd—assuming cpds 20 mM. • 4) Repeat for wells A2 to A10. Control in columns 11 and 12. • 5) Transfer 5 μl from row A to row B—not column 12. Mix well. • 6) Transfer 5 μl from row B to row C. […] Add 2 μl of 100 mM standard cpd to wells B12-H12 {is positive control} • 13) The Z′ factor is calculated from zero controls and positive wells.

[1] = fluorescence polarisation, E. coli expressed human full-length HSP90 200 nM, probe 80 nM, read-out: Hsp90 FP IC50

T1 sequence (P08238 whole entry): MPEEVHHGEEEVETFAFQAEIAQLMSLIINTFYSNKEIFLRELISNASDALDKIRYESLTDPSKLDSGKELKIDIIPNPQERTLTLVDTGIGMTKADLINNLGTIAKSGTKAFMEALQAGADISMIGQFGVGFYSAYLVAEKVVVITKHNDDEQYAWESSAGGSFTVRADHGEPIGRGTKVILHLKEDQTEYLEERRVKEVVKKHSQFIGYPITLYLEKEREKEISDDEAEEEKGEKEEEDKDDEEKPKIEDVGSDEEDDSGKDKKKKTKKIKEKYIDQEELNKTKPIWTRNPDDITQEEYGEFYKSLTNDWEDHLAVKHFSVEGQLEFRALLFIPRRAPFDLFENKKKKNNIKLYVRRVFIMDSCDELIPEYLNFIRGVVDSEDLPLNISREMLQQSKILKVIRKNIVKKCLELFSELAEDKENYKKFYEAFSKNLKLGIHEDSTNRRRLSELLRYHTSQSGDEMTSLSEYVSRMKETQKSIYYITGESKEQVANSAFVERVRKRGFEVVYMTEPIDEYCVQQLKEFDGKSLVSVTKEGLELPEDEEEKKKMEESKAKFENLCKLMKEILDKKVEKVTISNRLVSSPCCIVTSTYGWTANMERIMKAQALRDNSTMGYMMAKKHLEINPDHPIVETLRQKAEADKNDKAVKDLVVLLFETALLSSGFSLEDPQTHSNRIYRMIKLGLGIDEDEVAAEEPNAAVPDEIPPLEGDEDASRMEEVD

SMILES	pIC50 [1]	pIC50
CCOc1ccc(-c2c(C#N)c(N)nc3sc(C(N)=O)c(N)c23)cc1 [Example 8]	–	> 5.00
CN1CCN(C(=O)c2sc3nc(N)c(C#N)c(-c4ccccc4)c3c2N)CC1 [Example 16]	< 5.00	–
CN(C)CCCNC(=O)c1sc2nc(N)c(C#N)c(-c3ccccc3)c2c1N [Example 17]	< 5.00	–
CN1CCN(CCCNC(=O)c2sc3nc(N)c(C#N)c(-c4ccccc4)c3c2N)CC1 [Example 18]	< 5.00	–
N#Cc1c(N)nc2sc(C(=O)NCCCN3CCOCC3)c(N)c2c1-c1ccccc1 [Example 19]	< 5.00	–
N#Cc1c(N)nc2sc(C(=O)N3CCOCC3)c(N)c2c1-c1ccccc1 [Example 20]	< 5.00	–
N#Cc1c(N)nc2sc(C(=O)NCCN3CCOCC3)c(N)c2c1-c1ccccc1 [Example 21]	< 5.00	–
CN(C)CCNC(=O)c1sc2nc(N)c(C#N)c(-c3ccccc3)c2c1N [Example 23]	< 5.00	–
N#Cc1c(N)nc2sc(C(=O)NCCO)c(N)c2c1-c1ccccc1 [Example 24]	< 5.00	–
N#Cc1c(N)nc2sc(C(N)=O)c(N)c2c1-c1ccccc1 [Example 25]	< 5.00	–
N#Cc1c(N)nc2sc(C(=O)NCCN)c(N)c2c1-c1ccccc1 [Example 26]	< 5.00	–
COC(=O)c1sc2nc(N)c(C#N)c(-c3ccc(OC(C)C)cc3)c2c1N [Example 27]	< 5.00	–

Continued, values first:

pIC50 [1]	pIC50	SMILES
> 5.00	–	CCNC(=O)c1sc2nc(N)c(C#N)c(-c3ccccc3)c2c1N [Example 1, 3,6-Diamino-5-cyano-4-phenyl-thieno[2,3-b]pyridine-2-carboxylic acid ethylamide]
< 5.00	–	Cc1ccccc1NC(=O)c1sc2nc(N)c(C#N)c(-c3ccc(C(C)C)cc3)c2c1N [Example 2]
< 5.00	–	COc1cccc(NC(=O)c2sc3nc(N)c(C#N)c(-c4ccc(C(C)C)cc4)c3c2N)c1 [Example 3]
< 5.00	–	N#Cc1c(N)nc2sc(C(N)=O)c(N)c2c1-c1ccc(Br)cc1 [Example 4]
< 5.00	–	CC(C)c1ccc(-c2c(C#N)c(N)nc3sc(C(=O)Nc4nccs4)c(N)c23)cc1 [Example 5]
> 5.00	–	CC(C)c1ccc(-c2c(C#N)c(N)nc3sc(C(N)=O)c(N)c23)cc1 [Example 6]
> 5.00	–	N#Cc1c(N)nc2sc(C(N)=O)c(N)c2c1-c1ccc(Cl)cc1 [Example 7]
< 5.00	–	N#Cc1c(N)nc2sc(C(=O)Nc3ccccc3)c(N)c2c1-c1ccc(Br)cc1 [Example 9]
< 5.00	–	COc1ccc(-c2c(C#N)c(N)nc3sc(C(N)=O)c(N)c23)cc1OC [Example 10]
< 5.00	–	CC(C)NC(=O)c1sc2nc(N)c(C#N)c(-c3ccccc3)c2c1N [Example 11]
< 5.00	–	N#Cc1c(N)nc2sc(C(=O)NCc3ccccc3)c(N)c2c1-c1ccccc1 [Example 12]
< 5.00	–	CCN(CC)C(=O)c1sc2nc(N)c(C#N)c(-c3ccccc3)c2c1N [Example 13]
> 5.00	–	CNC(=O)c1sc2nc(N)c(C#N)c(-c3ccccc3)c2c1N [Example 14]
> 5.00	–	COC(=O)CNC(=O)c1sc2nc(N)c(C#N)c(-c3ccccc3)c2c1N [Example 15]
> 5.00	–	N#Cc1c(N)nc2sc(C(=O)NCC(N)=O)c(N)c2c1-c1ccccc1 [Example 22]

— patent US20110034457A1, “Pyridothiophene Compounds” (VERNALIS (CAMBRIDGE) LIMITED., priority 2003, published 2011)
